“Also recorded” adds a separate entry of the source.
Legend:
[1] = tested on: endothelial cells (HUVEC); experiment: Binding of biotinylated ADOPep to endothelial cells by FACS; design: species or system human
Procedure: FIG. 3 is a FACS analysis depicting the binding (in percentages) of biotinylated ADOPep1 (ADOPep1^Biot), an ADAM15 derived peptide (SEQ ID NO:2), to endothelial cells (EC) under normoxia. Biotinylated ADOPep1 at 0.05, 0.5 and 5 microgram/ml (μg/ml) were added to endothelial cells.
FIG. 4 is a FACS analysis depicting the binding (in total counts) of Biotinylated ADOPep1 to endothelial cells under normoxia and hypoxia conditions. […] X axis—Intensity of binding.
Human umbilical endothelial cells (HUVEC) were harvested by trypsin and 100,000 cells per sample were suspended in PBS+5% FCS+0.1% Na azide. Endothelial cells were either exposed for 5 hours to hypoxia or remained under normoxia conditions. Cells were stained for 2 hours on ice in dark with 0.05, 0.5, 5 μg/100,000 cells biotinylated ADOPeps. The cells were then washed twice with PBS, following which the cells were stained for 30 minutes with FITC-labeled Streptavidin (Jackson ImmunoResearch Laboratories, PA, USA). After washing, samples were analyzed using a fluorescence activated cell sorter (FACScan Beckton Dickinson, Calif., USA).

[2] = tested on: endothelial cells (HUVEC); experiment: Proliferation of endothelial cells under hypoxia ([H3]Thymidine incorporation); type: cell-based, human; conditions: 24 hours starvation, 10 ng/ml
Procedure: FIG. 5 is a graph depicting cell proliferation as a function of ADOPeps' concentration. Proliferation of endothelial cells (EC) under hypoxia conditions was measured by [H^3]Thymidine incorporation. Endothelial cells (12,000/well) in minimal growth medium were incubated for 24 hours in the presence of 1, 10 and 100 ng/ml of ADOPep1 (SEQ ID NO:2; red diamonds), 2 (SEQ ID NO:3; blue squares) and 3 (SEQ ID NO:4; green triangles) peptides.
HUVEC from passage 3 were used for proliferation experiments. Endothelial cells (15,000 cells/well) were seeded on 24-wells in the presence of endothelial cell growth medium (Promocell, Heidelberg, Germany) with supplements and incubated for 24 hours. After then, cells were exposed to 24 hours starvation in a medium free of supplements. ADOPeps were added at concentrations of 1, 10 and 100 ng/ml for 24 hours under hypoxic conditions. 2 μCi/well of Thymidine (SIGMA, Rehovot Israel) were added or over night incubation followed by 3 washes with PBS before harvesting at 37° C. with 300 μl/well of 0.5 M NaOH. Cell lysates were transferred to scintillation vials with 2 ml scintillation liquid Ultima Gold (Packard Bioscience, Meriden, USA) and counted in a β counter. Results were obtained as counts per minute (cpm).

mouse ischemic hind limb [3] = experiment: Histological assessment of angiogenesis in ischemic hind limb (von Willebrand Factor VIII staining); type: in vivo
Procedure: FIG. 8 is a graph depicting histological assessment of angiogenesis in the ischemic hind limb treated with ADOPep1. Mice were subjected to hind limb ligation and ADOPep administration as described in FIG. 7 and at the noted days (0, 7, 14 and 21 days) post hind limb ligation the mice were sacrificed and legs were embedded in paraffin. Sections were stained with anti von Willebrand factor and the number of Factor VIII positive vessels was determined using the Image Pro Plus software. Shown are the average blood vessel densities (of 10 individual microscopical fields per sample) expressed as number of capillaries per millimeter squared in histological sections of mouse hind limb ischemia treated with ADOPep1.
FIGS. 9a-b are microscopical images of histological sections subjected to von Willebrand Factor immuno-staining of mouse hind limb ischemia 21 days following injection of ADOPep1 (FIG. 9a) or PBS (FIG. 9b). […]
Limbs from mice treated with ADOPep 1, 3 or control mice injected with PBS were sacrificed at 7, 14 and 21 days post operation. […] Vessel densities were expressed as capillaries per millimeter squared. To obtain the average vessel number per cross-section area, a minimum of ten individual fields were sampled, and Image Pro-Plus (MediaCybernetics, Silver spring, MD, USA) was used to measure the counted area. The number of Factor VIII positive vessels was counted.

[4] = tested on: GRP78 receptor on endothelial cells; experiment: Competitive binding of ADOPeps to GRP78 (anti-GRP78 antibody ELISA on endothelial cells); design: species or system human; conditions: summary of 4 experiments
Procedure: FIG. 19 is a graph depicting inhibition of binding (in percentages) of anti-GRP78 antibody to endothelial cells by increasing concentrations of ADOPep1, 2, and 3 peptides. Endothelial cells were incubated for 2 hours with increasing concentrations of ADOPeps, following which the cells were incubated for another 1 hour with the 2 μg/ml of anti-GRP78 antibody and the amount of bound antibody on EC was detected using an ELISA reader.
Endothelial cells (20,000 per well) were seeded in 96 well plates for 24 hours in the presence of the complete medium. Plates were washed with PBS over night and rehydrated with PBS, 0.1% Na Azide and 5% FCS. ADOPep1, ADOPep2 and ADOPep3 were added to washed plates for 2 hours at room temperature at concentrations of 0.01, 0.1 and 1 microgram per ml. Anti-GRP78 antibody (goat polyclona IgG, Santa Cruz Biotechnology, Calif., USA) was added to the plates for 1 hour at room temperature at a concentration of 2 micrograms/ml per well. After washing, bound anti-GRP78 antibody was detected by incubation with anti-goat IgG Peroxidase conjugated (Jackson Immuneresearch Laboratories, PA, USA). After 5 washes with PBS-0.1% Tween 20, 100 μl/well of TMB+ Substrate-Chromogen (DAKOCytomation, CA, USA) was added for a maximum of 30 minutes. Reaction was stopped with 1N HCl. Color developed was determined by an ELISA reader at 450 nm.

mouse ischemic hind limb [5] = experiment: Apoptotic cells in ischemic hind limb sections; type: in vivo; conditions: 1 μg/mice, 7 days post ligation, vs PBS
Procedure: FIG. 22 is a bar graph depicting the number of apoptotic cells per field in ischemic hind limb treated with ADOPep1 as a function of days after ischemia induction. Mice were subjected to hind limb ligation and PBS or ADOpep1 injection as described in the description of FIG. 21, hereinabove, and the number of apoptotic cells per microscopical filed was determined in histological sections prepared from either ligated and ADopep or PBS treated hind limbs of mice sacrificed at 7, 14 or 21 days post ischemia induction or from normal non-ischemic hind limbs.

Question: Which “binding to endothelial cells under hypoxia versus normoxia” value ([1]; 5 micrograms per 100,000 cells) does the source give for “HWRRAHLLPRLP [ADOPep1, ADAM15 derived peptide, amino acids 286-297 of the metalloprotease domain]” here?
Answer: increase in binding; also recorded: increased under hypoxia

Question: What about the “percent binding of biotinylated ADOPep1 to endothelial cells” value ([1]; hypoxia 5 hours, 5 μg/ml) of the same sequence?
Answer: about 85%

Question: What about the “percent binding of biotinylated ADOPep1 to endothelial cells” value ([1]; normoxia, maximal at 5 μg/ml) of the same sequence?
Answer: about 62%

Question: What about the “proliferation of endothelial cells” value [2] of the same sequence?
Answer: capable of inducing proliferation of EC

Question: What about the “proliferation of endothelial cells” value ([2]; listed as ADOpep1) of the same sequence?
Answer: induced proliferation of endothelial cells

Question: And the “blood vessel density (number of blood vessels per area)” value (mouse ischemic hind limb [3]; 0.1 μg per mouse, days 7, 14, 21, vs PBS)?
Answer: significant increase (p<0.05) in the number of blood vessels; also recorded: significant increase in the blood vessel density

Question: What about the “von Willebrand Factor staining of small vessels” value (mouse ischemic hind limb [3]; 21 days following injection, vs PBS) of the same sequence?
Answer: higher von Willebrand Factor Positive stained small vessels; also recorded: significantly higher von Willebrand Factor staining of small vessels

Question: And the “inhibition of binding of anti-GRP78 antibody to EC (in words)” value [4]?
Answer: some degree of inhibition

Question: And the “number of apoptotic cells per field” value (mouse ischemic hind limb [5])?
Answer: significant decrease

Question: And the “number of apoptotic cells per field” value (mouse ischemic hind limb [5]; listed as ADoPep1)?
Answer: dramatically decreased
